Holding throughout (assay): filter binding kinase assay
What all share (assay type): biochemical

The target of one experiment is T1, ERBB4 (Homo sapiens, UniProt Q15303).
T1 construct: purchased
The conditions noted are these: derived from % inhibition at 1 μM. The method, boiled down: (§1)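 Each reaction ran at ambient temperature following a five-minute compound preincubation, was started with ATP (5, 20 or 50 […] stock, per enzyme) and stopped with acid; substrate phosphorylation was read by scintillation counting of P81 filters.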

The target in another experiment is T2, PRKCA (Homo sapiens, UniProt P17252).
T2 construct: purchased
Conditions: derived from % inhibition at 1 μM. In outline: as §1

The next experiment addresses T3, STK3 (Homo sapiens, UniProt Q13188).
T3 construct: purchased
T3 sequence (Q13188 1-491): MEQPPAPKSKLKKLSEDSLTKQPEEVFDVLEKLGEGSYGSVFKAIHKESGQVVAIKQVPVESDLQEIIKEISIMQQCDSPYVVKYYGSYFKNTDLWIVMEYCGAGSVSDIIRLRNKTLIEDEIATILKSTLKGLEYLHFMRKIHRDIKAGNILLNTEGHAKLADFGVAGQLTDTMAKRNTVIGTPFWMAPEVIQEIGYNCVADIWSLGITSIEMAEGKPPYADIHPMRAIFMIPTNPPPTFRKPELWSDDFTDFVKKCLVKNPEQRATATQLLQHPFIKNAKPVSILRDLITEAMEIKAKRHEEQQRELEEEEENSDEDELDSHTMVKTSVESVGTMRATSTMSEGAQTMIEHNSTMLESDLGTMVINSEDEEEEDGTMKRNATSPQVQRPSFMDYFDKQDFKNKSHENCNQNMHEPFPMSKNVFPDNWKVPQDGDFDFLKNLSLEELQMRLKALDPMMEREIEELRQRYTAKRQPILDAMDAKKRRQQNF
Conditions: derived from % inhibition at 1 μM. In outline: as §1

In a further experiment the target is T4, MARK4 (Homo sapiens, UniProt Q96L34).
T4 construct: purchased
T4 sequence (Q96L34 1-752): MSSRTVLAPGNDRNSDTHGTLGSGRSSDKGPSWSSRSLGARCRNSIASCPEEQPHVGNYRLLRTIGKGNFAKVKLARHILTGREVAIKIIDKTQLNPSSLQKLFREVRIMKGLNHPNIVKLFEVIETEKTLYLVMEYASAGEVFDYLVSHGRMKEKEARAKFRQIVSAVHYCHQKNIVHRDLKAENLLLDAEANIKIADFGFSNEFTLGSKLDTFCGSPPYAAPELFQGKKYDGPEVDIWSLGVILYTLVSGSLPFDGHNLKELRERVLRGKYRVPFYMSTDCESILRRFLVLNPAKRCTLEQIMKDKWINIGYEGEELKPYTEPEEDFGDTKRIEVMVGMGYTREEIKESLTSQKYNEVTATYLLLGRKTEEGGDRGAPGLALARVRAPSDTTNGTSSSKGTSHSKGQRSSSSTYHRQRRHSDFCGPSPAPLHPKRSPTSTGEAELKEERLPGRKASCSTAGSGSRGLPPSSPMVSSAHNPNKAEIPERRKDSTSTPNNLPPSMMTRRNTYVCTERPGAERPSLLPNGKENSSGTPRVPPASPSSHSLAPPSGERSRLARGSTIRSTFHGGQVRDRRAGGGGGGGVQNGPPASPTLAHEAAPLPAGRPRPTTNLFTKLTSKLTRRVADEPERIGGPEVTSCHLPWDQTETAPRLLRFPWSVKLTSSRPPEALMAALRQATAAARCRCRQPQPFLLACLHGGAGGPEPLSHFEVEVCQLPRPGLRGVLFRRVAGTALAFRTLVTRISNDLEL
Conditions: derived from % inhibition at 1 μM. In outline: as §1

For another experiment, the target named is T5, PRKAA1 (Homo sapiens, UniProt Q13131).
T5 construct: purchased
T5 sequence (Q13131 whole entry, species assumed): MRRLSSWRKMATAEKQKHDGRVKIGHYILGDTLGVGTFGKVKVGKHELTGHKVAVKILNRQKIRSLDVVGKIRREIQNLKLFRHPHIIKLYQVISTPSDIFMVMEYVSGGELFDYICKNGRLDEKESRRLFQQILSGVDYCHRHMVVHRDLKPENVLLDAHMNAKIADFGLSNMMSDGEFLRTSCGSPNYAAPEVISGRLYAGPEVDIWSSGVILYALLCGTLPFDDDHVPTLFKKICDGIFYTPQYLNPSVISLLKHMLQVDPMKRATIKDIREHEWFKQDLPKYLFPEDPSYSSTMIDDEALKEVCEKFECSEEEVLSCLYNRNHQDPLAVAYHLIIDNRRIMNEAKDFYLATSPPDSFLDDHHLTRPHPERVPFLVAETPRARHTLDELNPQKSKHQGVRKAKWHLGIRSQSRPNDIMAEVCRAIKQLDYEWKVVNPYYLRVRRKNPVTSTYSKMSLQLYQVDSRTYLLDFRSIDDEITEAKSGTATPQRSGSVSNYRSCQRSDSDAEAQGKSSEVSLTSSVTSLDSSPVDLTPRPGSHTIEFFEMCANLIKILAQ
T5 sequence (Q9Y478 whole entry partner, species assumed): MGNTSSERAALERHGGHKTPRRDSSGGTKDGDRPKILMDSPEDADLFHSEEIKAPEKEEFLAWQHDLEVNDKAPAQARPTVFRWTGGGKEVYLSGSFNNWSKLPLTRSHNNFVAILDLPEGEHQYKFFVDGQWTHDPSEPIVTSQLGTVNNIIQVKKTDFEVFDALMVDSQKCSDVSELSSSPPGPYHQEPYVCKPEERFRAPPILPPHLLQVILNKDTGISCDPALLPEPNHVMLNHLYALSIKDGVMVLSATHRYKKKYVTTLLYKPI
T5 sequence (P54619 whole entry partner, species assumed): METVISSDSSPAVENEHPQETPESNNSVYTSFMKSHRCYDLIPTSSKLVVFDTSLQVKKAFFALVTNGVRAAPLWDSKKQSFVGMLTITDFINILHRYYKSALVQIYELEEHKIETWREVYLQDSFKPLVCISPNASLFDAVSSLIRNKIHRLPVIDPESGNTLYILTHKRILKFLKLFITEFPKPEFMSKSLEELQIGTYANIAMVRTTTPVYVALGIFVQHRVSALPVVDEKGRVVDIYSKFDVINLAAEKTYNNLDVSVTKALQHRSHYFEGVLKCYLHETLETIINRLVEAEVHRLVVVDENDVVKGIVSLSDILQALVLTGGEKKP
The conditions noted are these: derived from % inhibition at 1 μM. In outline:
as §1

The target of another experiment is T6, PDPK1 (PDK1) (Homo sapiens, UniProt O15530).
T6 construct: purchased
T6 sequence (O15530 1-556): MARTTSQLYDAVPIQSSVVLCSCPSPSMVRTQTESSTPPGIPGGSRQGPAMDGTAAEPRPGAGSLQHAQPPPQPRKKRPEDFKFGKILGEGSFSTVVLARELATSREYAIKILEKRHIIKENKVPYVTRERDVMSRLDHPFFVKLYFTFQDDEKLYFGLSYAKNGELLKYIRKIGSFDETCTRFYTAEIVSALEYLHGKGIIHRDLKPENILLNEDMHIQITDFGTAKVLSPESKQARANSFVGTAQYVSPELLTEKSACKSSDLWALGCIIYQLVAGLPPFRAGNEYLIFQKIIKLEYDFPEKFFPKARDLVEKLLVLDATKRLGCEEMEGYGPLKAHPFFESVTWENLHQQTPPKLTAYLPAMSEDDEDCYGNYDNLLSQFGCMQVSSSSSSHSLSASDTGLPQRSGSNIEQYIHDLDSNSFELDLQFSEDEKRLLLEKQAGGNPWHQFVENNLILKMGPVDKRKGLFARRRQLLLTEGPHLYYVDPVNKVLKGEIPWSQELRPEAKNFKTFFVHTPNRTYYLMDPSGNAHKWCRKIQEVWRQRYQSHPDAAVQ
Conditions: for IC50: derived from % inhibition at 1 μM, first PDPK1 line. The method, boiled down: as §1

Some results are limits rather than exact numbers.

The term IC50 denotes the concentration that gives 50% inhibition.

T1 sequence (Q15303 26-1308, species assumed): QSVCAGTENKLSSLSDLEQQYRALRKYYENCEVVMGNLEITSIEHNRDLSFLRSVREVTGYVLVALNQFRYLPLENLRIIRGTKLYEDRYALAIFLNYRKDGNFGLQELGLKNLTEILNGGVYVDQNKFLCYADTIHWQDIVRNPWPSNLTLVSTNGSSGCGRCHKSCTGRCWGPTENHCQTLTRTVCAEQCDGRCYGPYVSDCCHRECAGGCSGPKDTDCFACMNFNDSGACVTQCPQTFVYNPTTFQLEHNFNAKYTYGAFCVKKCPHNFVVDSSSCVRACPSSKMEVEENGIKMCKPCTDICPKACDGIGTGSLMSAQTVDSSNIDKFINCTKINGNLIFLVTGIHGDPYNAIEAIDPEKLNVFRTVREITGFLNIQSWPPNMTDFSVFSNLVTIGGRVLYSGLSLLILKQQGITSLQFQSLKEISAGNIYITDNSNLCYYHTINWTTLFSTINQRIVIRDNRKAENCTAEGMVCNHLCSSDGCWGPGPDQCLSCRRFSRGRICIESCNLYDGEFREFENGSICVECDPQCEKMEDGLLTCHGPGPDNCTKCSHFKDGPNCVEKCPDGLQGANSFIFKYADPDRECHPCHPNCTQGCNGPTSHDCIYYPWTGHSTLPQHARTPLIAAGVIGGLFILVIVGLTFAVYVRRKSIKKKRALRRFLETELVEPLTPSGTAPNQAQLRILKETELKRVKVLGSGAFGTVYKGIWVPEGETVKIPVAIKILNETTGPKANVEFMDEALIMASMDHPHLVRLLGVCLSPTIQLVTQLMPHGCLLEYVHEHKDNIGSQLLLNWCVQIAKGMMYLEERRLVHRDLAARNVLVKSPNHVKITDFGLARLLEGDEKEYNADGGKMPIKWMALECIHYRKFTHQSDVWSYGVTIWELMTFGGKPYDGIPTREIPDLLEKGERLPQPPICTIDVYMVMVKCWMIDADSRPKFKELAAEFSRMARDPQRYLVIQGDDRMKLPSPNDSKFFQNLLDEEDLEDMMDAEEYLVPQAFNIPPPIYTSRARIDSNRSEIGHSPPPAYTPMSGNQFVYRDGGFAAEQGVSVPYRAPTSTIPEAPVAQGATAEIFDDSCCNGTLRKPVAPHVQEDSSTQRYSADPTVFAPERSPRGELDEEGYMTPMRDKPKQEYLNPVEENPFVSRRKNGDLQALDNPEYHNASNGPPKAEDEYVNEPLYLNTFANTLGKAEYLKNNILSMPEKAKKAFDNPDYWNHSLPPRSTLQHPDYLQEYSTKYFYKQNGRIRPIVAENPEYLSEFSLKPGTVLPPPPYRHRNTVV

Regarding `Nc1ncsc1C#Cc1cccc(O)c1` [Compound A27, 3-(4-aminothiazol-5-ylethynyl)phenol], the IC50 at ERBB4 is 1 to 10 µM; on PRKCA, > 1 µM; at STK3, 1 to 10 µM; on MARK4, 1 to 10 µM; on PRKAA1, 1 to 10 µM; on PDPK1 (PDK1), > 1 µM.
Regarding `CC(C)(C)OC(=O)Nc1ncsc1C#CCN1C(=O)c2ccccc2C1=O` [Compound A26, tert-butyl{5-[3-(1,3-dioxo-1,3-dihydroisoindol-2-yl)prop-1-ynyl]-thiazol-4-yl}carbamate], the IC50 is > 1 µM at ERBB4; 1 to 10 µM on PRKCA; > 1 µM at STK3; > 1 µM at MARK4; 10 to 100 µM at PRKAA1; 1 to 10 µM on PDPK1 (PDK1).
Regarding `CC(C)(C)OC(=O)Nc1nc(-c2ccncc2)sc1C#CCN1CCOCC1` [Compound A25, tert-butyl[5-(3-morpholin-4-ylprop-1-ynyl)-2-pyridin-4-ylthiazol-4-yl]-carbamate], the IC50 on ERBB4 is > 1 µM; on PRKCA, 10 to 100 µM; on STK3, > 1 µM; on MARK4, 10 to 100 µM; at PRKAA1 it was 10 to 100 µM; at PDPK1 (PDK1) it was > 1 µM.
Consider `c1ccc(Cc2c[nH]c3ncsc23)cc1` [Compound A7, 6-benzyl-4H-pyrrolo[2,3-d]thiazole], for which the IC50 on ERBB4 was 10 to 100 µM; on PRKCA it was 10 to 100 µM; at STK3, 1 to 10 µM; at MARK4, > 1 µM; on PRKAA1, 10 to 100 µM; on PDPK1 (PDK1) it was > 1 µM.
As to `Nc1ncsc1C#Cc1cnc2[nH]ccc2c1` [Compound A22, 5-(1H-pyrrolo[2,3-b]pyridin-5-ylethynyl)thiazol-4-ylamine], the IC50 was > 1 µM at ERBB4; 1 to 10 µM on PRKCA; 10 to 100 µM at STK3; 10 to 100 µM at MARK4; 10 to 100 µM at PRKAA1; 1 to 10 µM on PDPK1 (PDK1). Further, the remaining activity at 1 µM on PDPK1 (PDK1) (read-out: residual kinase activity PDK1) is 53%.

The values above are taken from US8703961B2, “Thiazole derivatives for the treatment of diseases such as cancer” (Merck Patent GmbH, priority 2009, dated 2014).
